Reference: US8735414B2 (priority 2009, dated 2014)

Experiments:
[1] = system: bicistronic HCV replicon (replicon RNA, GenBank Accession No. AJ242654); experiment: HCV Replicon Assay; type: cell-based; conditions: Hepatitis C virus, 72 h, read-out: Replicon IC50

| SMILES | IC50 [1] [nM] | melting point [°C] |
| --- | --- | --- |
| CC(C)n1c(-c2ccc(S(=O)(=O)NC(CF)CF)cn2)c(C#N)c2cc(F)ccc21 [compound 60, 6-[3-cyano-5-fluoro-1-(propan-2-yl)-1H-indol-2-yl]-N-(1,3-difluoropropan-2-yl)pyridine-3-sulfonamide] | < 500 | 168 to 170 |
| Cc1ccc2c(c1)c(C#N)c(-c1ccc(S(=O)(=O)N[C@@H](C)C(F)(F)F)cn1)n2-c1ccccc1 [compound 921, 6-(3-cyano-5-methyl-1-phenyl-1H-indol-2-yl)-N-[(2S)-1,1,1-trifluoropropan-2-yl]pyridine-3-sulfonamide] | < 500 | 160 to 165 |
| CC(C)NS(=O)(=O)c1ccc(-c2c(C#N)c3ccc(OC4CCC4)cc3n2C2CCC2)cn1 [compound 4, 5-[3-cyano-1-cyclobutyl-6-(cyclobutyloxy)-1H-indol-2-yl]-N-(propan-2-yl)pyridine-2-sulfonamide] | 2000 to 5000 | 178 to 180 |
| C[C@@H](NS(=O)(=O)c1ccc(-c2c(C(N)=O)c3cc(F)c(C4CC4)cc3n2C2CCCC2)nc1)C(F)(F)F [compound 829, 1-cyclopentyl-6-cyclopropyl-5-fluoro-2-(5-{[(2R)-1,1,1-trifluoropropan-2-yl]sulfamoyl}pyridin-2-yl)-1H-indole-3-carboxamide] | < 500 | 233 to 234 |
| Cc1ccc2c(C#N)c(-c3ccc(S(=O)(=O)N[C@@H](C)C(F)(F)F)cn3)n(C3CCC3)c2c1 [compound 351, 6-(3-cyano-1-cyclobutyl-6-methyl-1H-indol-2-yl)-N-[(2S)-1,1,1-trifluoropropan-2-yl]pyridine-3-sulfonamide] | < 500 | 203 to 208 |
| N#Cc1c(-c2ccc(S(=O)(=O)NC(CF)CF)cn2)n(C2CCOC2)c2ccc(F)cc12 (centres unmarked) [compound 46, 6-[3-cyano-5-fluoro-1-(tetrahydrofuran-3-yl)-1H-indol-2-yl]-N-(1,3-difluoropropan-2-yl)pyridine-3-sulfonamide] | < 500 | 194 to 197 |
| CCc1cc2c(cc1F)c(C#N)c(-c1ccc(S(=O)(=O)N(c3ncccn3)C3(C)CC3)cn1)n2-c1ncccn1 [compound 861, 6-[3-cyano-6-ethyl-5-fluoro-1-(pyrimidin-2-yl)-1H-indol-2-yl]-N-(1-methylcyclopropyl)-N-(pyrimidin-2-yl)pyridine-3-sulfonamide] | 2000 to 5000 | 193 to 200 |
| N#Cc1c(-c2ccc(S(=O)(=O)NC(CF)CF)cn2)n(C2CCC2)c2cc(F)ccc12 [compound 56, 6-(3-cyano-1-cyclobutyl-6-fluoro-1H-indol-2-yl)-N-(1,3-difluoropropan-2-yl)pyridine-3-sulfonamide] | < 500 | 206 to 208 |
| C[C@H](NS(=O)(=O)c1ccc(-c2c(C#N)c3cc(C(F)F)ccc3n2C2CCCC2)nc1)C(F)(F)F [compound 537, 6-[3-cyano-1-cyclopentyl-5-(difluoromethyl)-1H-indol-2-yl]-N-[(2S)-1,1,1-trifluoropropan-2-yl]pyridine-3-sulfonamide] | < 500 | 187 to 188 |
| C[C@H](NS(=O)(=O)c1ccc(-c2c(C#N)c3ccc(C#N)cc3n2C2CCCC2)nc1)C(F)(F)F [compound 470, 6-(3,6-dicyano-1-cyclopentyl-1H-indol-2-yl)-N-[(2S)-1,1,1-trifluoropropan-2-yl]pyridine-3-sulfonamide] | < 500 | 203 to 205 |
| CCc1cc2c(cc1F)c(C#N)c(-c1ccc(S(=O)(=O)N[C@H](C)C(F)(F)F)cn1)n2-c1ccc(F)cn1 [compound 880, 6-[3-cyano-6-ethyl-5-fluoro-1-(5-fluoropyridin-2-yl)-1H-indol-2-yl]-N-[(2R)-1,1,1-trifluoropropan-2-yl]pyridine-3-sulfonamide] | < 500 | 209 to 216 |
| CC(C)S(=O)(=O)Nc1ccc(-c2c(C#N)c3ccc(C4CC4)cc3n2C2CCC2)cn1 [compound 289, N-[5-(3-cyano-1-cyclobutyl-6-cyclopropyl-1H-indol-2-yl)pyridin-2-yl]propane-2-sulfonamide] | 500 to 2000 | 226 to 228 |
| Cc1cc2c(cc1F)c(C(=O)O)c(-c1ncc(S(=O)(=O)NC(C)(C)C)cn1)n2C1CCC1 [compound 794, 2-[5-(tert-butylsulfamoyl)pyrimidin-2-yl]-1-cyclobutyl-5-fluoro-6-methyl-1H-indole-3-carboxylic acid] | 2000 to 5000 | 194 to 201 |
| CCc1cc(F)c2c(C(N)=O)c(-c3ccc(NS(=O)(=O)C(C)(C)C)nc3)n(-c3ccccc3)c2c1 [compound 1111, 2-{6-[(tert-butylsulfonyl)amino]pyridin-3-yl}-6-ethyl-4-fluoro-1-phenyl-1H-indole-3-carboxamide] | < 500 | 288 to 294 |
| C[C@H](NS(=O)(=O)c1ccc(-c2c(C#N)c3cc(F)c(Cl)cc3n2C2CCC2)nc1)C(F)(F)F [compound 360, 6-(6-chloro-3-cyano-1-cyclobutyl-5-fluoro-1H-indol-2-yl)-N-[(2S)-1,1,1-trifluoropropan-2-yl]pyridine-3-sulfonamide] | < 500 | 203 to 206 |
| C[C@H](NS(=O)(=O)c1ccc(-c2c(C#N)c3ccc(F)cc3n2C2CCCCC2)nc1)C(F)(F)F [compound 394, 6-(3-cyano-1-cyclohexyl-6-fluoro-1H-indol-2-yl)-N-[(2S)-1,1,1-trifluoropropan-2-yl]pyridine-3-sulfonamide] | < 500 | 213 to 215 |
| CC(C)(C)S(=O)(=O)Nc1ccc(-c2c(C#N)c3ccc(OC(F)F)cc3n2CC2CC2)cn1 [compound 269, N-{5-[3-cyano-1-(cyclopropylmethyl)-6-(difluoromethoxy)-1H-indol-2-yl]pyridin-2-yl}-2-methylpropane-2-sulfonamide] | 500 to 2000 | 214 to 215 |
| Cc1cc2c(cc1F)cc(-c1ccc(S(=O)(=O)N[C@@H](C)C(F)(F)F)cn1)n2-c1ccnc(F)c1 [compound 944, 6-[5-fluoro-1-(2-fluoropyridin-4-yl)-6-methyl-1H-indol-2-yl]-N-[(2S)-1,1,1-trifluoropropan-2-yl]pyridine-3-sulfonamide] | 500 to 2000 | 176 to 180 |
| C[C@H](NS(=O)(=O)c1cnc(-c2c(C#N)c3cc(Cl)ccc3n2C2CCCC2)nc1)C(F)(F)F [compound 419, 2-(5-chloro-3-cyano-1-cyclopentyl-1H-indol-2-yl)-N-[(2S)-1,1,1-trifluoropropan-2-yl]pyrimidine-5-sulfonamide] | 500 to 2000 | 243 to 249 |
| C[C@H](NS(=O)(=O)c1cnc(-c2c(C#N)c3ccc(OC(F)F)cc3n2-c2ccccc2)nc1)C(F)(F)F [compound 611, 2-[3-cyano-6-(difluoromethoxy)-1-phenyl-1H-indol-2-yl]-N-[(2S)-1,1,1-trifluoropropan-2-yl]pyrimidine-5-sulfonamide] | < 500 | 216 to 218 |
| Cc1cc2c(cc1F)c(C#N)c(-c1ccc(S(=O)(=O)N[C@@H](C)C(F)(F)F)cn1)n2-c1cncc(F)c1 [compound 945, 6-[3-cyano-5-fluoro-1-(5-fluoropyridin-3-yl)-6-methyl-1H-indol-2-yl]-N-[(2S)-1,1,1-trifluoropropan-2-yl]pyridine-3-sulfonamide] | < 500 | 199 to 204 |
| CCc1cc2c(cc1F)c(C#N)c(-c1cc(C)c(S(=O)(=O)N[C@@H](C)C(F)(F)F)cn1)n2-c1ccccn1 [compound 852, 6-[3-cyano-6-ethyl-5-fluoro-1-(pyridin-2-yl)-1H-indol-2-yl]-4-methyl-N-[(2S)-1,1,1-trifluoropropan-2-yl]pyridine-3-sulfonamide] | < 500 | 178 to 183 |
| CCc1cc2c(cc1F)c(C#N)c(-c1ccc(S(=O)(=O)N[C@H](C)C(F)(F)F)cn1)n2C1CCC1 [compound 641, 6-(3-cyano-1-cyclobutyl-6-ethyl-5-fluoro-1H-indol-2-yl)-N-[(2R)-1,1,1-trifluoropropan-2-yl]pyridine-3-sulfonamide] | < 500 | 199 to 199.5 |
| Cc1cc(-c2c(C#N)c3cc(F)ccc3n2-c2ncccn2)ncc1S(=O)(=O)N[C@@H](C)C(F)(F)F [compound 848, 6-[3-cyano-5-fluoro-1-(pyrimidin-2-yl)-1H-indol-2-yl]-4-methyl-N-[(2S)-1,1,1-trifluoropropan-2-yl]pyridine-3-sulfonamide] | < 500 | 199 to 204 |
| CNC(=O)c1c(-c2ncc(S(=O)(=O)NC(C)(C)C)cn2)n(C2CCC2)c2cc(C)c(F)cc12 [compound 802, 2-[5-(tert-butylsulfamoyl)pyrimidin-2-yl]-1-cyclobutyl-5-fluoro-N,6-dimethyl-1H-indole-3-carboxamide] | < 500 | 211 to 213 |
| C[C@H](NS(=O)(=O)c1ccc(-c2c(C#N)c3cc(Cl)ccc3n2C2CCCC2)nc1)C(F)(F)F [compound 365, 6-(5-chloro-3-cyano-1-cyclopentyl-1H-indol-2-yl)-N-[(2S)-1,1,1-trifluoropropan-2-yl]pyridine-3-sulfonamide] | < 500 | 207 to 214 |
| CC[C@H](NS(=O)(=O)c1ccc(-c2c(C#N)c3cc(F)c(C)cc3n2C2CCCC2)nc1)C(F)(F)F [compound 821, 6-(3-cyano-1-cyclopentyl-5-fluoro-6-methyl-1H-indol-2-yl)-N-[(2S)-1,1,1-trifluorobutan-2-yl]pyridine-3-sulfonamide] | < 500 | 201 to 207 |
| N#Cc1c(-c2ccc(S(=O)(=O)NC(CF)CF)cn2)n(C2CCC2)c2cc(C(F)F)ccc12 [compound 331, 6-[3-cyano-1-cyclobutyl-6-(difluoromethyl)-1H-indol-2-yl]-N-(1,3-difluoropropan-2-yl)pyridine-3-sulfonamide] | < 500 | 217 to 222 |
